In patent US5070210A, “Novel ketenimines as intermediates for insecticides” (ICI Americas Inc., priority 1990, dated 1991):

Experiments:
Format in all cases: in vivo
[1] = tested on: Cabbage Looper [Trichoplusia ni (Hubner)]; assay: Cabbage looper insecticidal test; settings: second-instar larvae, percent in solution; 3-5 days
In short: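 Compounds in 50-50 acetone-water were applied by dipping squash cotyledons (about 1×1.5 in) for 2-3 s; dried leaves went into petri dishes on moist filter paper with 5 second-instar larvae under high humidity. Mortality was scored after 3-5 days; LC50 from dosage-mortality curves, as percent compound in solution.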

[2] = tested on: Tobacco Budworm [Heliothis virescens (Fabricius)] larvae; assay: Tobacco budworm contact test; settings: second-instar larvae, percent in solution, 5 days
In short: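 Cotton cotyledons dipped 2–3 s in compound in 50-50 acetone-water, dried, then infested with 5 second-instar larvae and held 5 days at high humidity. Mortality scored; LC50 from dosage-mortality curves, expressed as percent compound in solution, concentrations from 0.1% downward.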

[3] = tested on: Beet Armyworm (Spodoptera exigua); assay: Beet armyworm insecticidal test; settings: second-instar larvae, percent in solution; five days
Description: (§1) The compounds in Tables 1 and 2 above were tested for insecticidal activity using the following testing procedures. LC50 values, based on the results of these tests and calculated according to dosage-mortality curves, are expressed in Table 3.
Beet Armyworm (Spodoptera exigua):
Test compounds were diluted in a 50-50 acetone-water solution. Young leaves of sugar beets (Beta vulgaris) were immersed in the test solutions for 2-3 seconds and placed on a wire screen to dry. The dried leaves were placed in petri dishes containing a moistened filter paper and infested with five second-instar beet armyworm larvae. The dishes were placed in a high humidity chamber. Mortality of the larvae was recorded five days later. Test concentrations ranged from 0.1% downward. The LC-50 values are expressed below in Table 3 under the heading "BAW" in terms of percent of the test compound in solution.

[4] = tested on: Tobacco Budworm [Heliothis virescens (Fabricius)] eggs; assay: Tobacco budworm egg test; settings: 2-day old eggs, percent in solution
In short: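 Paper towel patches bearing 2-day old eggs were dipped in acetone solutions of compound, then set in petri dishes over larval rearing medium at 78° F. Mortality was scored once all control eggs had hatched and larvae were feeding. LC50, from dosage-mortality curves, is given as percent compound in solution.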

[5] = tested on: Maize weevil [Sitophilus Zeamais (Motschulsky)]; assay: Maize weevil insecticidal test; settings: adult weevils, percent in solution; 48 hours
In short: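 LC50, in percent of compound in solution, was derived from dosage-mortality curves after 48 h at about 25 °C. Ten adult weevils per container fed on four corn seeds briefly immersed in acetone:water (50:50) solutions of up to 0.01% and dried.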

[6] = tested on: Aster Leafhopper [Macrosteles fascifrens (Stal)]; assay: Aster leafhopper insecticidal test; settings: adults/nymphs, percent in solution; 48 hours
In short: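 LC50 values, given as percent of test compound in the dip solution, were derived from dosage-mortality curves over concentrations from 0.05% downward. Mortality was counted 48 hours after ten leafhopper adults/nymphs were enclosed on treated seedlings. The seedlings were oats, about 10 cm tall, briefly dipped in 50-50 acetone-water.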

[7] = tested on: Housefly [Musca domestica]; assay: Housefly insecticidal test; settings: μg per 25 female flies; mortality after 48 hours
In short: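 LC50, as μg compound per 25 female flies, comes from dosage-mortality curves with doses from 100 μg downward. Residues were made by evaporating acetone plus 0.01% peanut oil in dishes, onto which 1-2-day-old females were caged; deaths were counted after 48 hours.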

[8] = tested on: Rice water weevil [Lissorhoptrus oryzophilus (Kuschel)]; assay: Rice water weevil insecticidal test; settings: topical, μg per weevil; 48 hours
Description: as §1
Rice water weevil [Lissorhoptrus oryzophilus (Kuschel)]:
Test compounds were diluted in acetone. Droplets (1 μl) of test solutions were applied to the ventral abdomens of ten female adult weevils. The treated weevils were placed in containers with wet cotton balls and rice foliage. The containers were covered and kept at a temperature of about 25° C. Mortality was recorded after 48 hours. Test concentrations ranged from […] or 2.5 μg per weevil down to that at which 50% mortality occurred. The LC50 values are expressed below in Table 3 under the heading "RWW" in terms of μg of test compound per weevil.

Compound	LC50, CL [1] [%]	LC50, TBW, C (TBW-C) [2] [%]	LC50, BAW [3] [%]	LC50, TBW, E (TBW-E) [4] [%]	LC50, MW [5] [%]	LC50, LH [6] [%]	LC50, HF [7] [µg]	LC50, RWW [8] [µg]
Clc1ccc(N=C(OCc2cccc(Oc3ccccc3)c2)C(Cl)Cl)cc1 [Compound 29]	0.002	0.001	0.003	0.01	> 0.01	0.003	5	
ClCC(=Nc1ccc(Cl)cc1)OCc1cccc(Oc2ccccc2)c1 [Compound 31]	0.05	0.01	0.08	> 0.1	> 0.01	> 0.05	> 100	
Clc1ccc(N=C(OCc2cccc(Oc3ccccc3)c2)C2CC2)cc1 [Compound 32]	0.003	0.006	0.03	0.1	> 0.01	> 0.05	37	
CC(Cl)C(=Nc1ccc(Cl)cc1)OCc1cccc(Oc2ccccc2)c1 (centres unmarked) [Compound 33]	0.01	0.0025	0.02	> 0.1	> 0.01	> 0.05	17	
CC(=Nc1ccccc1)OCc1cccc(Oc2ccccc2)c1 [Compound 42]	> 0.1	> 0.1	> 0.1	> 0.1	> 0.01	> 0.05	45	
FC(F)(F)c1ccc(N=C(OCc2cccc(Oc3ccccc3)c2)C(Cl)Cl)cc1 [Compound 61]	0.001	0.03	0.002	0.03	> 0.01	> 0.05	29	
FC(F)(F)c1ccc(N=C(OCc2cccc(Oc3ccccc3)c2)C2CC2)cc1 [Compound 62]	0.005	0.0015	0.02	0.025	> 0.01	> 0.05	20	
FC(F)(F)Oc1ccc(N=C(OCc2cccc(Oc3ccccc3)c2)C(Cl)Cl)cc1 [Compound 64]	0.0025	0.1	0.0025	0.03	> 0.01	> 0.05	11	
CC(C)C(=Nc1cc(F)cc(C(F)(F)F)c1)OCc1cccc(Oc2ccccc2)c1 [Compound 77]	0.0005	0.0004	0.004	0.03	> 0.01	0.0002	10	
Fc1ccc(N=C(OCc2cccc(Oc3ccccc3)c2)C2CC2)cc1Cl [Compound 113]	0.005			0.1			15	> 2.5
CC(C)C(=Nc1ccc(C(C)C)cc1)OCc1cccc(Oc2ccccc2)c1 [Compound 144]	0.002	0.006	> 0.01	0.05	> 0.01	0.0006	100	
CC(C)C(=Nc1ccc2c(c1)OCO2)OCc1cccc(Oc2ccc(F)cc2)c1 [Compound 176]	0.0005	0.002	0.0035	0.05	0.009	> 0.05	1.8	
CC(C)C(=Nc1ccc(F)c(Cl)c1)OCc1cc(Oc2ccc(F)cc2)ccc1F [Compound 230]	0.0004			0.1	0.038		36	> 2.5
CC(C)C(=Nc1ccc(F)c(Br)c1)OCc1cccc(Oc2ccccc2)c1 [Compound 254]	0.001			0.026			6	> 2.5
CC(C)C(=Nc1ccc(F)c(Cl)c1)OCc1cccc(Oc2ccc(F)cc2)c1F [Compound 262]	0.0004			> 0.1	0.005		26	> 2.5
CC(C)C(=Nc1cccc(C(F)(F)F)c1)OCc1ccc(F)c(Oc2ccc(F)cc2)c1 [Compound 268]	0.000025	0.0005	0.001	0.023	> 0.01	0.0005	4	
CC(C)C(=Nc1cccc(Cl)c1)OCc1cccc(Oc2ccc(Cl)cc2)c1 [Compound 270]	0.00025	> 0.0015	0.005	> 0.01	> 0.01	0.003	12	
CC(C)C(=Nc1cccc(I)c1)OCc1ccc(F)c(Oc2ccc(F)cc2)c1 [Compound 279]	0.00008	0.007	0.0025	0.016	> 0.01	0.0003	4	
CC(C)(F)C(=Nc1ccc(F)c(Cl)c1)OCc1ccc(F)c(Oc2ccc(F)cc2)c1 [Compound 310]	0.00006			0.015			4.5	> 2.5
CC(C)C(=Nc1ccc(C(F)(F)F)cc1)OCc1ccc(F)c(Oc2ccc(F)cc2)c1 [Compound 314]	0.00005			0.012			21	0.11
CC(C)C(=Nc1ccc(F)c(Cl)c1)OCc1ccc(F)c(Oc2ccc(F)c(F)c2)c1 [Compound 346]	> 0.1	0.0002	> 0.1	> 0.1	> 0.01	0.05	7.2	
CC(C)C(=Nc1ccc(OC(F)(F)F)cc1)OCc1ccc(F)c(Oc2ccc(F)c(F)c2)c1 [Compound 347]	0.000075	0.0001	0.00075	> 0.1	> 0.01	0.0002	30	
CC(C)C(=Nc1ccc(F)c(F)c1F)OCc1cccc(Oc2ccc(F)cc2)c1 [Compound 348]	0.0002	0.00075	> 0.1	> 0.1	> 0.01	0.05	8	
CCOc1ccc(N=C(OCc2ccc(F)c(Oc3ccc(Cl)cc3)c2)C(C)C)cc1Cl [Compound 369]	0.0016			> 0.1	> 0.01		> 100	> 2.5
CCOc1ccc(N=C(OCc2ccc(F)c(Oc3ccccc3)c2)C(C)C)cc1Cl [Compound 370]	0.00034			0.02	> 0.01		< 100	> 2.5
